Among the test systems are XF 498 CNS; HOP-92 NSCLC; COLO 205 colon; HCT-116 colon; U251 CNS; UO-31 renal; SW-620 colon; M19-MEL melanoma; DMS 114 small cell lung; UACC-62 melanoma; M14 melanoma; 786-0 renal.
Common to all, as to test: DTP human tumour cell line panel, 48 h

This is an account of results in PubChem BioAssay (NCI).

Usually TGI stands for the concentration giving total growth inhibition. High values mean lower sensitivity of the cells, low ones greater sensitivity of the cells.

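Compound exposure: 48 hours, 5 concentrations, 96-well plates. TGI: total growth inhibition.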

In the case of `CC(=O)C(=Cc1cn(C)c(=O)n(C)c1=O)C(C)=O`, the TGI in the assay on XF 498 CNS is 78.1 µM; with HOP-92 NSCLC, 8.16 µM; in the assay with COLO 205 colon it was 189 µM; in the assay with HCT-116 colon, 188 µM; in the assay on U251 CNS, 223 µM; in the assay with UO-31 renal, 175 µM. The TGI with SW-620 colon was determined as 302 µM; with M19-MEL melanoma, 273 µM; in the assay with DMS 114 small cell lung, 227 µM; in the assay with UACC-62 melanoma it was 148 µM.

On to `NC(=O)CCC(N=c1c2ccccc2n(O)c2ccccc12)C(=O)O` (configuration not stated), for which the TGI with COLO 205 colon, with HCT-116 colon, with U251 CNS, with M14 melanoma, in the assay with UO-31 renal and in the assay on SW-620 colon was > 100 µM each time. Moreover, the total growth inhibition concentration (TGI) in the assay on 786-0 renal, in the assay with M19-MEL melanoma, in the assay with DMS 114 small cell lung and in the assay on UACC-62 melanoma was > 100 µM throughout.

Regarding `CC(C)CCCC(C)[C@H]1CCC(C2C[C@@H](O)[C@@H]3CC(O)[C@@H](O)C[C@]3(CO)C2=O)[C@]1(C)CCO` (some centres not stated), the total growth inhibition concentration (TGI) is > 59.6 µM in the assay on XF 498 CNS; 35 µM with COLO 205 colon; 38.2 µM in the assay with HCT-116 colon; 37.7 µM with U251 CNS; 49.8 µM in the assay with UO-31 renal; 52.7 µM in the assay on SW-620 colon. The total growth inhibition concentration (TGI) with M19-MEL melanoma stood at 39 µM; in the assay with DMS 114 small cell lung it was 39.7 µM; with UACC-62 melanoma, 34.5 µM.

In the case of `COc1ccccc1NC(=O)C(=O)C(C(=O)c1ccccc1F)C1OC(=O)c2ccccc21` (configuration not stated), the concentration for total growth inhibition (TGI) is > 100 µM with XF 498 CNS; > 100 µM in the assay with HOP-92 NSCLC; 43.6 µM with COLO 205 colon; 44.3 µM in the assay with HCT-116 colon; 31.1 µM in the assay on U251 CNS; > 100 µM with M14 melanoma. The total growth inhibition concentration (TGI) is 98.7 µM with UO-31 renal; > 100 µM with SW-620 colon; 61.6 µM in the assay with M19-MEL melanoma; 64.3 µM in the assay on DMS 114 small cell lung; 34.9 µM with UACC-62 melanoma.

As for `C[s+]1c2ccccc2c2ccccc21`, the TGI with XF 498 CNS, with COLO 205 colon, in the assay with HCT-116 colon, in the assay on U251 CNS, in the assay with M14 melanoma and in the assay on UO-31 renal was > 100 µM in each case. The total growth inhibition concentration (TGI) in the assay with SW-620 colon, in the assay on 786-0 renal, with M19-MEL melanoma and in the assay with UACC-62 melanoma was > 100 µM in each case.

For the compound `COc1ccc(-c2ccc(C(=O)C=P(c3ccccc3)(c3ccccc3)c3ccccc3)cc2)cc1`, the TGI is 34 µM with HOP-92 NSCLC; 13.9 µM in the assay on COLO 205 colon; 32.3 µM in the assay on HCT-116 colon; 31.9 µM in the assay on U251 CNS; 31.6 µM in the assay with M14 melanoma; 13 µM in the assay on UO-31 renal. Besides, the total growth inhibition concentration (TGI) turned out to be 37.8 µM in the assay on SW-620 colon, 37.5 µM in the assay on 786-0 renal and 28.9 µM in the assay on UACC-62 melanoma.

For `CSC(SC)=C(C(=O)c1ccc(Cl)cc1)n1c(=O)sc2cc(Br)ccc21`, the TGI in the assay on HOP-92 NSCLC, in the assay with COLO 205 colon, in the assay with HCT-116 colon, in the assay with U251 CNS, in the assay on M14 melanoma and in the assay on UO-31 renal was > 100 µM in each case. The TGI in the assay with SW-620 colon, with 786-0 renal and in the assay on UACC-62 melanoma was > 100 µM in each case.

Turning to `Clc1ccc2c(c1)N(CCCN1CCCC13CCCCC3)c1ccccc1S2`, the concentration for total growth inhibition (TGI) in the assay with HOP-92 NSCLC was 38.2 µM; with COLO 205 colon, > 54.9 µM; in the assay on HCT-116 colon, 30.7 µM; in the assay with U251 CNS, 23.6 µM; in the assay on M14 melanoma, 27.3 µM; in the assay with UO-31 renal, 22.4 µM. Also, the concentration for total growth inhibition (TGI) in the assay with SW-620 colon amounted to 40.7 µM; with 786-0 renal it was 23.7 µM; in the assay with UACC-62 melanoma it was 31.1 µM.

Regarding `COc1cccc2c1C(=O)c1c(O)c3c(c(O)c1C2=O)C[C@@](O)(C(C)=O)CC3OC1CC(OC2CC(N)C(O)C(C)O2)C(O)C(C)O1` (some centres not stated), the concentration for total growth inhibition (TGI) is > 100 µM with HOP-92 NSCLC; > 100 µM with COLO 205 colon; > 100 µM in the assay on HCT-116 colon; > 87.6 µM in the assay with U251 CNS; > 100 µM in the assay with M14 melanoma; > 100 µM in the assay on UO-31 renal. The concentration for total growth inhibition (TGI) in the assay with SW-620 colon, in the assay on 786-0 renal and in the assay with UACC-62 melanoma was > 100 µM in each case.

For `O=[N+]([O-])c1ccc(-n2nc3ccc4nonc4c3n2)cc1`, the TGI was 65 µM in the assay on HOP-92 NSCLC; > 100 µM with COLO 205 colon; > 100 µM with HCT-116 colon; > 100 µM with U251 CNS; > 100 µM in the assay on M14 melanoma; 62.9 µM in the assay with UO-31 renal. Also, the TGI with SW-620 colon is > 100 µM; in the assay with 786-0 renal, 89.4 µM; with UACC-62 melanoma, > 100 µM.

Regarding `Cc1ccccc1NC(=O)O/N=C(\Cl)C(C)C`, the total growth inhibition concentration (TGI) in the assay on HOP-92 NSCLC amounted to 4.08 µM; with COLO 205 colon, 3.29 µM; with HCT-116 colon, 4.79 µM; in the assay on U251 CNS it was 39.9 µM; with M14 melanoma it was 12.1 µM; with UO-31 renal it was 31.3 µM. Moreover, the figures for the TGI in the assay on SW-620 colon, with 786-0 renal and in the assay on UACC-62 melanoma were 4.36 µM, 3.45 µM and 28.3 µM, respectively.

For `O=P1(N(CCCl)CCCl)Oc2ccc(Cl)cc2C(C(Cl)(Cl)Cl)c2cc(Cl)ccc2O1` (configuration not stated), the TGI was 40.4 µM in the assay on HOP-92 NSCLC; 26.5 µM in the assay with COLO 205 colon; 15.9 µM in the assay with HCT-116 colon; 29.2 µM in the assay on U251 CNS; 98.4 µM in the assay on M14 melanoma; > 100 µM in the assay on UO-31 renal. Besides, the concentration for total growth inhibition (TGI) with SW-620 colon is > 100 µM; with 786-0 renal it was 30.7 µM; with UACC-62 melanoma, 26.7 µM.

`CCOc1ccc2nc(NC(=O)C(=O)C(C(=O)c3ccccc3F)C3OC(=O)c4ccccc43)sc2c1` (configuration not stated): the concentration for total growth inhibition (TGI) in the assay on XF 498 CNS came out at 46.2 µM; in the assay with COLO 205 colon it was 30.4 µM; with HCT-116 colon, 31.8 µM; in the assay on U251 CNS it was 23.8 µM; in the assay with M14 melanoma it was 32.5 µM; in the assay with UO-31 renal, 33.6 µM. The TGI turned out to be 37.5 µM with SW-620 colon, 27 µM in the assay with M19-MEL melanoma and 27.7 µM with UACC-62 melanoma.
